Assay results as given in US10800726B2, “Rexinoid compounds and methods of using rexinoid compounds for treating metabolic disorders and cancer” (THE UAB RESEARCH FOUNDATION, priority 2014, dated 2020).

Tests used:
[1] = test system: estrogen-negative mammary cancers; test: DMBA-induced mammary carcinogenesis in transgenic erbB2+/− mice; format: in vivo; conditions: orally administered, female transgenic erbB2+/− mice, vs control mice, FIG. 1
Excerpt: FIG. 1 is a graph showing the efficacy of 9-cis-UAB30, TARGRETIN, Compound UAB125, and Compound UAB126 in preventing the formation of mammary cancers in ErbB2^+/− female mice. The first bar represents the controls for 9-cis-UAB30 and TARGRETIN. The fourth bar represents the controls for UAB125 and UAB126.
Mammary carcinogenesis was induced in female, transgenic erbB2^+/− mice using 7,12-Dimethylbenz[a]anthracene (DMBA). The mice were orally administered 9-cis-UAB30 (a tissue selective rexinoid), TARGRETIN® (Valeant Pharmaceuticals, West Laurel, Calif.) (i.e., bexarotene, which is a potent RXR agonist), UAB125, or UAB126. The control mice were not administered any compounds. […] Specifically, UAB125 and UAB126 prevented the formation of 68% and 79%, respectively, of the estrogen-negative mammary cancers, while 9-cis-UAB30 and TARGRETIN® prevented only 54% and 65%, respectively.

[2] = High fat diet-induced obesity: body weight, body composition (QMR), food intake; format: in vivo, C57BL/6J mice
Excerpt: (§1) Twelve C57BL/6J mice were randomly divided into two groups, namely high fat diet (HFD) (60% of calories from fat) fed with or without Compound UAB126 (1.5 g/kg food) for 10 weeks.
(§2) Also, fasting glucose levels in mice fed HFD with Compound UAB126 were lower than mice fed HFD (FIG. 5). […] Food intake was not different between the 2 groups.

[3] = Glucose tolerance, insulin sensitivity and fasting glucose in high fat diet fed mice; format: in vivo, C57BL/6J mice; conditions: HFD with compound
Excerpt: as §1, §2

[4] = Serum triglyceride, cholesterol and free fatty acids in high fat diet fed mice; format: in vivo, C57BL/6J mice
Excerpt: as §1
Previously developed rexinoids have the adverse side effect of elevating serum triglyceride (TG) level. […] Thus, Compound UAB126 can regulate lipid metabolism.

[5] = QMR, normalized by body weight, FIG. 6B
[6] = QMR, without normalization, FIG. 6A

In the case of `Cc1ccc(-c2cccc(C=CC(=O)O)c2)c2ccccc12` (single isomer, unassigned) [UAB125, 3-(3-(4-methyl-1-naphthyl)phenyl)propenoic acid], the “prevention of formation of estrogen-negative mammary cancers” value (“prevention” below) [1] is reported as 68%.
With `O=C(O)C=Cc1ccc(-c2cccc3ccccc23)cc1` (single isomer, unassigned) [UAB126, 3-(4-(1-naphthyl)phenyl)propenoic acid] the “prevention” value [1] was 79%, the “final body weight (avg.)” value ([2]; HFD (60% of calories from fat) with compound 1.5 g/kg food, 10 weeks, avg. initial 22.5 g, HFD alone: initial 23 g, final 40 g, FIG. 2) was 27.8 g and the “body weight gain compared to HFD fed mice without compound” value ([2]; HFD with compound 1.5 g/kg food, 10 weeks, FIG. 2) was “gained less body weight”. For the same compound, the “fat mass normalized by body weight, compared to HFD fed mice” value [2, 5] was “less fat mass”, the “lean mass normalized by body weight, compared to HFD fed mice” value [2, 5] was “more lean mass” and the fat mass [2, 6] was “markedly reduced”. The lean mass [2, 6] was “slightly reduced”, the “glucose tolerance vs mice fed HFD alone” value ([3]; FIG. 3) was “more glucose tolerant” and the “insulin sensitivity vs mice fed HFD alone” value ([3]; FIG. 4) was “insulin sensitive”. For the same compound, the “fasting glucose levels vs mice fed HFD” value ([3]; FIG. 5) was “lower”, the serum triglyceride levels ([4]; HFD with compound vs HFD, FIG. 7) was “significantly reduced” and the serum cholesterol ([4]; compared to HFD vehicle treated mice, FIG. 8A) was “significantly decreased”. The “serum free fatty acids (FFA)” value ([4]; compared to HFD vehicle treated mice, FIG. 8B) was “significantly decreased”.
With `CC(=C/C=C/C(C)=C/C(=O)O)/C=C1\CCCc2ccccc21` [Compound 9-cis-UAB30, reference compound] the “prevention” value [1] was 54%.
For `C=C(c1ccc(C(=O)O)cc1)c1cc2c(cc1C)C(C)(C)CCC2(C)C` [TARGRETIN, bexarotene, reference compound], the “prevention” value [1] was 65%.
